From US20240024520A1, “AUTONOMOUS KNOB DOMAIN PEPTIDES” (UCB BIOPHARMA SRL, priority 2020, published 2024)
Where two headings read alike, the source gives them in different places. Bridge positions count the residues as written; N and C are the ends. Peptide text beside a SMILES is read from it.

Molecular target: C5 (Homo sapiens, UniProt P01031)
Assay: Biacore multi-cycle kinetics on human C5
Format: binding
Details: for mean stoichiometric ratio: measured Rmax divided by theoretical Rmax; for koff: read-out: mean Koff; for kon: read-out: mean Kon
Description: Binding of knob domain peptides to human C5 was measured by SPR, using a multi-cycle kinetics method as follows:
Kinetics were measured using a Biacore 8K (GE Healthcare) with a CM5 chip, which was prepared as follows: EDC/NHS was mixed at 1:1 ratio (flow rate, 10 μL/min; contact time, 30 seconds), human C5 protein at 1 μg/mL in pH 4.5 sodium-acetate buffer, were injected over flow cell one only (flow rate, 10 μL/min; contact time, 60 seconds). Final immobilization levels in the range of 2000-3000 response units (RU) were obtained, to yield theoretical Rmax values of ˜50-60 RU. Serial dilutions of peptide were prepared in HBS-EP buffer and injected (flow rate, 30 μL/min; contact time, 240 seconds; dissociation time, 6000 seconds). After each injection, the surface was regenerated with two sequential injections of 2M MgCl2 (flow rate, […]; contact time, 30 seconds). Binding to the reference surface was subtracted, and the data were fitted to a single site binding model, using Biacore evaluation software.

[1] = multi-cycle kinetics, n = 3 experiments

C5, sequence (P01031 19-1676): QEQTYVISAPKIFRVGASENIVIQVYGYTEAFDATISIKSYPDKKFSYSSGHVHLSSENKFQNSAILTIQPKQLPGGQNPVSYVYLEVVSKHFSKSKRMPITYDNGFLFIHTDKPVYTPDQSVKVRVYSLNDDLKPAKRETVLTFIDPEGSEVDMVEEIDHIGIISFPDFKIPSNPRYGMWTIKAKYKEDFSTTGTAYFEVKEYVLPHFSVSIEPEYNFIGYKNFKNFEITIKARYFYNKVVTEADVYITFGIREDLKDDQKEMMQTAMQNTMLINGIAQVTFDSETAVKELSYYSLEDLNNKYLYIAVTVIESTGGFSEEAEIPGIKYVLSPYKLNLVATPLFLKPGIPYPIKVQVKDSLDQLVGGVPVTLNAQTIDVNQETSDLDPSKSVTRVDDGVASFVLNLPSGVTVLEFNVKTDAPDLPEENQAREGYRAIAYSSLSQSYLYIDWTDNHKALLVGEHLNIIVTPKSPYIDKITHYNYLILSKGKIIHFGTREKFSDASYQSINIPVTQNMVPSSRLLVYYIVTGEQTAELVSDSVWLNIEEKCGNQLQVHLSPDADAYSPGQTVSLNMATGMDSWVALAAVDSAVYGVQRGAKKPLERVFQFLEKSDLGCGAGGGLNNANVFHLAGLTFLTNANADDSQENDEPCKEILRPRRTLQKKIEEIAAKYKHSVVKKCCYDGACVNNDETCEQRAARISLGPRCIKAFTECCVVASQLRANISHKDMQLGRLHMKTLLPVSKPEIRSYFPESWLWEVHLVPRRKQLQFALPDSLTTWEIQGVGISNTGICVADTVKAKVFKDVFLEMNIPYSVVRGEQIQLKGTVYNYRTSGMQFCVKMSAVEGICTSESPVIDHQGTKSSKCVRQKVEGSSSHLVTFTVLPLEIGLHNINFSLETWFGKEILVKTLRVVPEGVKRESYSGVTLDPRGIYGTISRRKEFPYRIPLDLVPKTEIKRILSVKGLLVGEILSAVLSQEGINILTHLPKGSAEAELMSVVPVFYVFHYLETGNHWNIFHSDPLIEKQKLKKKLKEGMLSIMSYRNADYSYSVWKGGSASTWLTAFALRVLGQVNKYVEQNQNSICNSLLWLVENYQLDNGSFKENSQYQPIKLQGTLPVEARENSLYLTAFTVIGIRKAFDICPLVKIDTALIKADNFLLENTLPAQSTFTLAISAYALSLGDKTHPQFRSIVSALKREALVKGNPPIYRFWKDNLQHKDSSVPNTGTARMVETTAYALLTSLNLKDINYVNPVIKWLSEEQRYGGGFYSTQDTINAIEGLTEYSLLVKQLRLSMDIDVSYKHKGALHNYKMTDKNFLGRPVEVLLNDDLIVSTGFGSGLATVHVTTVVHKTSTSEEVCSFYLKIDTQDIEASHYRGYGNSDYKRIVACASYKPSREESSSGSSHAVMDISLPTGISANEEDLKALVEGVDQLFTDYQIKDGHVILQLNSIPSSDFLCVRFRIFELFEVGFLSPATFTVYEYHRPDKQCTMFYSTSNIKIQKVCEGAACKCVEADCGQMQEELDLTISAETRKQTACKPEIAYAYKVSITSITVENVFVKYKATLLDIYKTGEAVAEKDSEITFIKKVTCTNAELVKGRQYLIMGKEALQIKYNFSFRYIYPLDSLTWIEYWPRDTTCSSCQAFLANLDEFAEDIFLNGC

| SMILES | mean stoichiometric ratio (n = 3 experiments) | koff | kon | koff [1] | kon [1] |
| --- | --- | --- | --- | --- | --- |
| CC[C@H](C)[C@@H]1NC(=O)[C@H](C)NC(=O)[C@H](C(C)C)NC(=O)CNC(=O)[C@@H]2CSSC[C@@H](C(=O)NCC(=O)N[C@@H](Cc3c[nH]cn3)C(=O)N[C@@H](C)C(=O)N[C@@H](CC(C)C)C(=O)N[C@@H](CC(N)=O)C(=O)N[C@@H](CO)C(=O)NCC(=O)N3CCC[C@H]3C(=O)N[C@@H](CC(N)=O)C(=O)N[C@H](C(=O)N[C@@H](CO)C(=O)N3CCC[C@H]3C(=O)N[C@@H](Cc3ccc(O)cc3)C(=O)N[C@H](C(=O)N[C@@H](CO)C(=O)N[C@H](C(=O)O)[C@@H](C)O)C(C)C)[C@@H](C)CC)NC(=O)CNC(=O)[C@H](Cc3c[nH]c4ccccc34)NC(=O)[C@H](CCCNC(=N)N)NC(=O)CNC(=O)[C@H](CSSC[C@H](NC(=O)[C@@H](N)[C@@H](C)O)C(=O)N3CCC[C@H]3C(=O)N[C@@H](CCC(=O)O)C(=O)NCC(=O)N[C@@H](Cc3c[nH]c4ccccc34)C(=O)N[C@@H](CO)C(=O)N[C@@H](CCC(=O)O)C(=O)N2)NC(=O)[C@H](CCC(=O)O)NC(=O)[C@H](Cc2ccc(O)cc2)NC(=O)CNC(=O)[C@H](Cc2ccc(O)cc2)NC1=O [K92chemFE F26A] (H-TCPEGWSECGVAIYGYECGRWGCGHALNSGPNISPYVST-OH; disulfide 2-18, 9-23; N-terminus assumed) | 0.65 | 0.00328 s⁻¹ | 184000 M⁻¹ s⁻¹ | – | – |
| CC[C@H](C)[C@@H]1NC(=O)[C@H](C)NC(=O)[C@H](C(C)C)NC(=O)CNC(=O)[C@@H]2CSSC[C@@H](C(=O)NCC(=O)N[C@@H](Cc3c[nH]cn3)C(=O)N[C@@H](Cc3ccccc3)C(=O)N[C@@H](CC(C)C)C(=O)N[C@@H](CC(N)=O)C(=O)N[C@@H](CO)C(=O)NCC(=O)N3CCC[C@H]3C(=O)N[C@@H](CC(N)=O)C(=O)N[C@H](C(=O)N[C@@H](CO)C(=O)N3CCC[C@H]3C(=O)N[C@@H](Cc3ccc(O)cc3)C(=O)N[C@H](C(=O)N[C@@H](CO)C(=O)N[C@H](C(=O)O)[C@@H](C)O)C(C)C)[C@@H](C)CC)NC(=O)CNC(=O)[C@H](Cc3c[nH]c4ccccc34)NC(=O)[C@H](CCCNC(=N)N)NC(=O)CNC(=O)[C@H](CSSC[C@H](NC(=O)[C@@H](N)[C@@H](C)O)C(=O)N3CCC[C@H]3C(=O)N[C@@H](CCC(=O)O)C(=O)NCC(=O)N[C@@H](C)C(=O)N[C@@H](CO)C(=O)N[C@@H](CCC(=O)O)C(=O)N2)NC(=O)[C@H](CCC(=O)O)NC(=O)[C@H](Cc2ccc(O)cc2)NC(=O)CNC(=O)[C@H](Cc2ccc(O)cc2)NC1=O [K92chemFE W6A] (H-TCPEGASECGVAIYGYECGRWGCGHFLNSGPNISPYVST-OH; disulfide 2-18, 9-23; N-terminus assumed) | 0.60 | – | – | 0.00157 s⁻¹ | 7980 M⁻¹ s⁻¹ |
| CC[C@H](C)[C@@H]1NC(=O)[C@H](C)NC(=O)[C@H](C(C)C)NC(=O)CNC(=O)[C@@H]2CSSC[C@@H](C(=O)NCC(=O)N[C@@H](Cc3c[nH]cn3)C(=O)N[C@@H](Cc3ccccc3)C(=O)N[C@@H](CC(C)C)C(=O)N[C@@H](CC(N)=O)C(=O)N[C@@H](CO)C(=O)NCC(=O)N3CCC[C@H]3C(=O)N[C@@H](CC(N)=O)C(=O)N[C@H](C(=O)N[C@@H](CO)C(=O)N3CCC[C@H]3C(=O)N[C@@H](Cc3ccc(O)cc3)C(=O)N[C@H](C(=O)N[C@@H](CO)C(=O)N[C@H](C(=O)O)[C@@H](C)O)C(C)C)[C@@H](C)CC)NC(=O)CNC(=O)[C@H](C)NC(=O)[C@H](CCCNC(=N)N)NC(=O)CNC(=O)[C@H](CSSC[C@H](NC(=O)[C@@H](N)[C@@H](C)O)C(=O)N3CCC[C@H]3C(=O)N[C@@H](CCC(=O)O)C(=O)NCC(=O)N[C@@H](Cc3c[nH]c4ccccc34)C(=O)N[C@@H](CO)C(=O)N[C@@H](CCC(=O)O)C(=O)N2)NC(=O)[C@H](CCC(=O)O)NC(=O)[C@H](Cc2ccc(O)cc2)NC(=O)CNC(=O)[C@H](Cc2ccc(O)cc2)NC1=O [K92chemFE W21A] (H-TCPEGWSECGVAIYGYECGRAGCGHFLNSGPNISPYVST-OH; disulfide 2-18, 9-23; N-terminus assumed) | 0.62 | – | – | 0.00848 s⁻¹ | 17400 M⁻¹ s⁻¹ |
| CC[C@H](C)[C@@H]1NC(=O)[C@H](C)NC(=O)[C@H](C(C)C)NC(=O)CNC(=O)[C@@H]2CSSC[C@@H](C(=O)NCC(=O)N[C@@H](Cc3c[nH]cn3)C(=O)N[C@@H](Cc3ccccc3)C(=O)N[C@@H](CC(C)C)C(=O)N[C@@H](CC(N)=O)C(=O)N[C@@H](CO)C(=O)NCC(=O)N3CCC[C@H]3C(=O)N[C@@H](CC(N)=O)C(=O)N[C@H](C(=O)N[C@@H](CO)C(=O)N3CCC[C@H]3C(=O)N[C@@H](Cc3ccc(O)cc3)C(=O)N[C@H](C(=O)N[C@@H](CO)C(=O)N[C@H](C(=O)O)[C@@H](C)O)C(C)C)[C@@H](C)CC)NC(=O)CNC(=O)[C@H](Cc3c[nH]cn3)NC(=O)[C@H](CCCNC(=N)N)NC(=O)CNC(=O)[C@H](CSSC[C@H](NC(=O)[C@@H](N)[C@@H](C)O)C(=O)N3CCC[C@H]3C(=O)N[C@@H](CCC(=O)O)C(=O)NCC(=O)N[C@@H](Cc3c[nH]c4ccccc34)C(=O)N[C@@H](CO)C(=O)N[C@@H](CCC(=O)O)C(=O)N2)NC(=O)[C@H](CCC(=O)O)NC(=O)[C@H](Cc2ccc(O)cc2)NC(=O)CNC(=O)[C@H](Cc2ccc(O)cc2)NC1=O [K92chemFE W21H] (H-TCPEGWSECGVAIYGYECGRHGCGHFLNSGPNISPYVST-OH; disulfide 2-18, 9-23; N-terminus assumed) | 0.69 | 0.000612 s⁻¹ | 425000 M⁻¹ s⁻¹ | – | – |
| CC[C@H](C)[C@@H]1NC(=O)[C@H](C)NC(=O)[C@H](C(C)C)NC(=O)CNC(=O)[C@@H]2CSSC[C@@H](C(=O)NCC(=O)N[C@@H](Cc3c[nH]cn3)C(=O)N[C@@H](Cc3ccccc3)C(=O)N[C@@H](CC(C)C)C(=O)N[C@@H](CC(N)=O)C(=O)N[C@@H](CO)C(=O)NCC(=O)N3CCC[C@H]3C(=O)N[C@@H](CC(N)=O)C(=O)N[C@H](C(=O)N[C@@H](CO)C(=O)N3CCC[C@H]3C(=O)N[C@@H](Cc3ccc(O)cc3)C(=O)N[C@H](C(=O)N[C@@H](CO)C(=O)N[C@H](C(=O)O)[C@@H](C)O)C(C)C)[C@@H](C)CC)NC(=O)CNC(=O)[C@H](Cc3c[nH]c4ccccc34)NC(=O)[C@H](CCCNC(=N)N)NC(=O)CNC(=O)[C@H](CSSC[C@H](NC(=O)[C@@H](N)[C@@H](C)O)C(=O)N3CCC[C@H]3C(=O)N[C@@H](CCC(=O)O)C(=O)NCC(=O)N[C@@H](Cc3c[nH]c4ccccc34)C(=O)N[C@@H](CO)C(=O)N[C@@H](CCC(=O)O)C(=O)N2)NC(=O)[C@H](CCC(=O)O)NC(=O)[C@H](Cc2ccc(O)cc2)NC(=O)CNC(=O)[C@H](C)NC1=O [K92chemFE Y14A] (H-TCPEGWSECGVAIAGYECGRWGCGHFLNSGPNISPYVST-OH; disulfide 2-18, 9-23; N-terminus assumed) | 0.41 | – | – | 0.0001 s⁻¹ | 27200 M⁻¹ s⁻¹ |
